Values quoted from earlier work as cited in patent publication US20070128633A1, “Cell-free protein expression systems and methods of use thereof” (ChemBridge Research Laboratories, Inc., priority 2005, published 2007).

Assays:
[1] = tested on: KIT variants containing 2 out of these 6 mutations; conditions: KIT variants with 2 of 6 catalytic domain point mutations found in seminomas; Kemmer et al. (2004)
[2] = target: KIT active site mutation D816V (Homo sapiens, UniProt P10721, D816V); conditions: sporadic adult human mastocytosis, Ma et al. (2002)
Chain of KIT active site mutation D816V (P10721 26-976 D816V): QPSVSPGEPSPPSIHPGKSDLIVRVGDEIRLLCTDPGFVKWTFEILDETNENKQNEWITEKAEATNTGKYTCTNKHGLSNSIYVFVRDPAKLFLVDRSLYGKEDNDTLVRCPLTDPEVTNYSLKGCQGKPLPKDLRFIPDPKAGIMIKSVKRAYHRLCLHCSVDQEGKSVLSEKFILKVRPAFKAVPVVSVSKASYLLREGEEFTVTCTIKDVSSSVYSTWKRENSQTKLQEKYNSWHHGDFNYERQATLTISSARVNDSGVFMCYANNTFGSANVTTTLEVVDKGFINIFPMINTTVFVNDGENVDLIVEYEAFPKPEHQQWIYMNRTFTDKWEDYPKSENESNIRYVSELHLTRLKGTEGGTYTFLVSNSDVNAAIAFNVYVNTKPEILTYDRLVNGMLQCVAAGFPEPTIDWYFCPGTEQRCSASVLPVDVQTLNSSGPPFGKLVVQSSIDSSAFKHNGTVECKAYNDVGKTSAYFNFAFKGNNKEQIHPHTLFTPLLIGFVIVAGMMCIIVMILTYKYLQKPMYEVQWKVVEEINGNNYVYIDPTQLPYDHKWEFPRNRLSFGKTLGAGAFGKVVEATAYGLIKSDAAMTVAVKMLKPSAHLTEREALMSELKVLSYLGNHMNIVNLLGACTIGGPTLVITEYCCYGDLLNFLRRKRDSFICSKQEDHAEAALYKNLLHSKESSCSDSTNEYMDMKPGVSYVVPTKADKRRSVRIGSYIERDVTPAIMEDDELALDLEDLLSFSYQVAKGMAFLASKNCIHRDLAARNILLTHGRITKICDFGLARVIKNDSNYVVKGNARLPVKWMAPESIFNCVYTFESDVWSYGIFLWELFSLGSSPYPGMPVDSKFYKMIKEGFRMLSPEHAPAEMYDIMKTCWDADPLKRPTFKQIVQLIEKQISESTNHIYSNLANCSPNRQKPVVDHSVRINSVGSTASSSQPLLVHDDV

streptavidin = streptavidin (Streptomyces avidinii, UniProt P22629); conditions: tag fused to the C- or N-termini of a recombinant protein; Skerra and Schmidt (2000)
Chain of streptavidin (P22629 25-183, species assumed): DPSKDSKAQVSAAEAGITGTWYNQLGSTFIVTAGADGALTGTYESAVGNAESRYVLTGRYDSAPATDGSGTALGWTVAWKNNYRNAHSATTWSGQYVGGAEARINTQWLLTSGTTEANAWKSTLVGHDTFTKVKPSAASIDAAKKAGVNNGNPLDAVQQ

Compound	inhibition of KIT variants [1]	response to imatinib treatment [2]	Kd (streptavidin)
Cc1ccc(NC(=O)c2ccc(CN3CCN(C)CC3)cc2)cc1Nc1nccc(-c2cccnc2)n1 [imatinib]	not inhibited	resistance	
WSHPQFEK [Strep-Tag II]			18 µM
